What was measured:
[1] = tested on: Non-small cell lung cancer cells (H1299); assay: clonogenic cell survival assay, H1299; type: cell-based
Experimental: (§1) FIG. 1 is a plot showing the surviving fraction of H1299 cells for increasing amounts of ascorbate, as determined by a clonogenic cell survival assay used to determine the effects of the compound alone and in combination with a pentaaza macrocyclic ring complex (GC4419). Non-small cell lung cancer cells (H1299) were exponentially grown in culture for 48 hours. The cells were then treated with 5-20 μM GC4419 for 24 hours and ascorbate (Asc) for one hour, followed immediately by clonogenic assay. The cells were trypsinized, counted, replated at varying lower densities and incubated. Plates were stained and counted for clonogenic survival assays.
as §1, with “FIG. 10” for “FIG. 1”, “with either the” for “with a”, “complex (GC4419) or the pentaaza macrocyclic ring complex (GC4401).” for “complex (GC4419).”, “with ascorbate (Asc) at the concentrations shown for one hour and either 10” for “with 5-20”, “GC4419 or 10 μM GC4401” for “GC4419”, “24 hours. After 24 hours, the” for “24 hours and ascorbate (Asc) for one hour, followed immediately by clonogenic assay. The”
FIG. 11 is a graph showing the surviving fraction of H1299 cells treated with ascorbate and combinations including ascorbate and/or auranofin. […] The cells were then trypsinized, counted, replated at varying lower densities and incubated. Plates were stained and counted for clonogenic survival assays.
The effect of ascorbate was tested in a clonogenic cell survival assay to determine the effects of the compound alone and in combination with a pentaaza macrocyclic ring complex (GC4419). […] The cells were trypsinized, counted, replated at varying lower densities and incubated. Plates were stained and counted for clonogenic survival assays.
The effect of ascorbate was tested in a clonogenic cell survival assay to determine the effects of the compound alone and in combination with the pentaaza macrocyclic ring complex (GC4419) and the pentaaza macrocyclic ring complex (GC4401). […] The cells were trypsinized, counted, replated at varying lower densities and incubated. Plates were stained and counted for clonogenic survival assays.
The effects of ascorbate in combination with a pentaaza macrocyclic ring complex (GC4419) was tested in a clonogenic cell survival assay to determine the effects of the combination alone and when paired with the thioredoxin reductase inhibitor auranofin. […] The cells were then trypsinized, counted, replated at varying lower densities and incubated. […]

[2] = tested on: VEGFr inhibitor-induced pulmonary disease; conditions: rat model; cited from earlier work
[3] = tested on: head and neck squamous cell carcinoma cells (SCC25); assay: clonogenic cell survival assay, SCC25; type: cell-based, Human; conditions: ascorbate 1 h in combination with 5, 10 or 20 μM GC4419 24 h, both present at the same time; compared to monotherapies or sequential treatment with media replacement; FIG. 3
Experimental: FIG. 3 is a plot showing the surviving fraction of SCC25 cells for increasing amounts of ascorbate, as determined by a clonogenic cell survival assay used to determine the effects of the compound alone and in combination with a pentaaza macrocyclic ring complex (GC4419). Human head and neck squamous cell carcinoma cells (SCC25) were exponentially grown in culture for 24 hours. The cells were then treated with 5-20 μM GC4419 for 24 hours and ascorbate (Asc) for one hour, followed by immediate clonogenic assay. The cells were trypsinized, counted, replated at varying lower densities and incubated. Plates were stained and counted for clonogenic survival assays.
The effect of ascorbate was tested in a clonogenic cell survival assay to determine the effects of the compound alone and in combination with a pentaaza macrocyclic ring complex (GC4419). Human head and neck squamous cell carcinoma cells (SCC25) were exponentially grown in culture for 24 hours. The cells were then treated with 5-20 μM GC4419 for 24 hours, and ascorbate (Asc) for one hour, followed by immediate clonogenic assay. The cells were trypsinized, counted, replated at varying lower densities and incubated. Plates were stained and counted for clonogenic survival assays.

With [Cl][Mn][Cl].c1cc2nc(c1)CN[C@H]1CCCC[C@@H]1NCCN[C@H]1CCCC[C@@H]1NC2 [GC4419] the “cell killing (clonogenic survival)” value ([1]; 1 μM auranofin 24 h + 10 μM GC4419 24 h + 10 pmol/cell ascorbate 1 h, compared to control, monotherapies and pairwise combinations, FIG. 11) was “also resulted in significant enhancements in cell killing”, the “cell killing (clonogenic survival)” value ([1]; 10 μM GC4419 24 h + 10 pmol/cell ascorbate 1 h, compared to control and monotherapies, FIG. 11) was “significant enhancements in cell killing” and the “cell killing (clonogenic survival)” value ([1]; ascorbate 1 h in combination with 5 μM or 20 μM GC4419 24 h, compared to ascorbate or GC4419 monotherapies, FIG. 1) was “significant enhancements in cell killing”. The “cell killing (clonogenic survival)” value ([1]; ascorbate 1 h in combination with 10 μM complex 24 h, compared to control, FIG. 10) was “significant enhancements in cell killing”, the pulmonary disease [2] was “attenuate VEGFr inhibitor-induced pulmonary disease” and the “cell killing (clonogenic survival)” value [3] was “significant enhancements in cell killing”.
